US9624223B2, “Morphinan derivative” (THE KITASATO INSTITUTE, priority 2013, dated 2017)
Marks after values point to notes of the source that are not given here.

How the values were obtained:
human opioid receptor δ = biological target: T1, human opioid receptor δ (Homo sapiens, UniProt P41143); assay: Opioid receptor function test (Lance Ultra cAMP Kit), δ receptor; type: cell-based; settings: for EC50: agonistic activity, human δ receptor-expressing CHO cells, cAMP, forskolin; for Emax: maximum reaction relative to SNC 80 taken as 100%
T1 construct: host or cells: CHO cells
Procedure: (§1) Functional activities of the compounds of the present invention on the μ, δ, and κ opioid receptors were examined.
(§2) The test was performed by using Lance Ultra cAMP Kit (Perkin-Elmer) according the prescribed method. In the evaluation of the agonistic activity, each human opioid receptor (δ, μ, and κ, accession numbers and catalog numbers are mentioned below)-expressing CHO cells and 10 μM of a test compound were reacted for 30 minutes in the presence of forskolin in an assay buffer (1×HBSS, […], pH 7.4, […] (isobutylmethylxanthine), 7.5% BSA). The cAMP detection reagent included in the kit was then added, and 1 hour afterward, time decomposition fluorometry was performed by using EnVision plate reader (Perkin-Elmer). […] The Emax value was calculated as a ratio of the maximum reaction of the test compound based on the maximum reaction of each control drug, which was taken as 100%.
(§3) • (+)-4-[(αR)-α-(2S,5R)-4-Allyl-2,5-dimethyl-1-piperazinyl]-3-methoxybenzyl]-N,N-diethylbenzamide DAMGO: • [D-Ala^2,N-MePhe^4,Gly-ol]enkephalin U-69593: • (+)-(5α,7α,8β)-N-Methyl-N-[7-(1-pyrrolidinyl)-1-oxaspiro[4.5]dec-8-yl]benzeneacetamide Accession Numbers and Catalog Numbers δ: Catalog No. CT4607, accession No. NM_000911.2 μ: Catalog No. CT4605, accession No. NM_000914 κ: Catalog No. CT4606, accession No. NM_000912 (ChanTest Corporation)

human opioid receptor μ = biological target: T2, human opioid receptor μ (Homo sapiens, UniProt P35372); assay: Opioid receptor function test (Lance Ultra cAMP Kit), μ receptor; type: cell-based; settings: for EC50: agonistic activity, human μ receptor-expressing CHO cells, cAMP, forskolin; for Emax: maximum reaction relative to DAMGO taken as 100%; for μ Receptor reaction ratio at the maximum concentration (reference value): 10 μM, maximum reaction not attained, DAMGO = 100%
T2 construct: host or cells: CHO cells
Procedure: as §1, §2, §3

human opioid receptor κ = biological target: T3, human opioid receptor κ (Homo sapiens, UniProt P41145); assay: Opioid receptor function test (Lance Ultra cAMP Kit), κ receptor; type: cell-based; settings: for κ Receptor reaction ratio at the maximum concentration (reference value): 10 μM, maximum reaction not attained, U-69593 = 100%; for EC50: agonistic activity, human κ receptor-expressing CHO cells, cAMP, forskolin; for Emax: maximum reaction relative to U-69593 taken as 100%
T3 construct: host or cells: CHO cells
Procedure: as §1, §2, §3

δ opioid receptor = biological target: T4, δ opioid receptor (Mus musculus, UniProt P32300); assay: Opioid receptor binding test, [3H]DPDPE, mouse cerebrum membrane fraction; settings: read-out: Binding affinity (Ki, nM) δ
T4 construct: In the assays for the μ and δ receptors, the mouse cerebrum membrane fraction was used; from tissue; host or cells: mouse cerebrum membrane fraction
Procedure: (§4) Binding affinities of the compounds of the present invention to the μ, δ, and κ opioid receptors were examined.
(§5) According to a previous report (J. Biol. Chem., 2001, 276:15409-15414), mouse cerebrum and guinea pig cerebellum membrane fractions were prepared. As radioactive ligands for the opioid receptors, [^3H]DAMGO (μ opioid receptor), [^3H]DPDPE (δ opioid receptor), and [3H]U69,593 (κ opioid receptor) were used. In the assays for the μ and δ receptors, the mouse cerebrum membrane fraction was used, and in the assay for the κ receptor, guinea pig cerebellum membrane fraction was used. For the nonspecific binding, DAMGO, DPDPE, and U69,593 were used at 1 μM for μ, δ and κ receptors, respectively. Each receptor membrane fraction, radioactive ligand, and a sample at various concentrations were reacted for a predetermined time, and after the B/F separation, amount of radioactivity remained on the filter was measured with a liquid scintillation counter, and binding inhibition ratio of the test compound (IC50 value) was calculated. Ki value was calculated by using the resulting IC50 value in accordance with the following equation. Ki=IC50/(1+L/Kd) L: Concentration of radioactive ligand used Kd: Kd value of radioactive ligand
(§6) Further, selectivity for the δ receptor among the opioid receptors was determined by calculating ratio of the Ki value for μ or κ, and the Ki value for δ (μ/δ or κ/δ).
(§7) • [D-Ala^2,N-MePhe^4, Gly-Ol]enkephalin DPDPE: • [D-Pen^2,D-Pen^5]enkephalin

μ opioid receptor = biological target: T5, μ opioid receptor (Mus musculus, UniProt P42866); assay: Opioid receptor binding test, [3H]DAMGO, mouse cerebrum membrane fraction; settings: ratio of Ki for μ to Ki for δ
T5 construct: In the assays for the μ and δ receptors, the mouse cerebrum membrane fraction was used; from tissue; host or cells: mouse cerebrum membrane fraction
Procedure: as §4, §5, §6, §7

κ opioid receptor = biological target: T6, κ opioid receptor (Cavia porcellus, UniProt P41144); assay: Opioid receptor binding test, [3H]U69,593, guinea pig cerebellum membrane fraction; settings: ratio of Ki for κ to Ki for δ
T6 construct: in the assay for the κ receptor, guinea pig cerebellum membrane fraction was used; from tissue; host or cells: guinea pig cerebellum membrane fraction
Procedure: as §4, §5, §6

hERG channel = biological target: T7, hERG channel (Homo sapiens, UniProt Q12809); assay: hERG potassium channel inhibition test (Qpatch16 patch clamp, CHO-K1 cells); type: cell-based; settings: 10 μM; tail current inhibition, hERG-expressing CHO-K1 cells
T7 construct: expressed in transfected cells; host or cells: CHO-K1 cells
Procedure: The test was performed with Qpatch16 (Sophion Biosciences Inc.) full automatic patch clamp system using hERG channel-stably expressing CHO-K1 cells. The hERG channel inhibitory action of each test compound was obtained on the basis of inhibitory action against a tail current induced by a test pulse at […] for 1 second applied after retention at +20 mV for 2 seconds. The test compound was dissolved in an extracellular fluid (137 mM NaCl, 4 mM KCl, 1.8 mM CaCl2, 1 mM MgCl2, 10 mM D(+)-glucose, 10 mM HEPES, pH 7.4), and the solution was […] at room temperature for 5 minutes. The inhibition ratio was obtained from the ratio of the tail current value observed after the compound was applied based on the tail current value observed before the compound was applied, which was taken as 100%. Cells were used for the test, where the cells show a peak tail current value not smaller than 100 pA, tail current run-down smaller than 30% of the initial current value, leak current smaller than 50% of the peak value of the tail current, and series resistance value lower than 20 MΩ.

T7 sequence (Q12809 whole entry): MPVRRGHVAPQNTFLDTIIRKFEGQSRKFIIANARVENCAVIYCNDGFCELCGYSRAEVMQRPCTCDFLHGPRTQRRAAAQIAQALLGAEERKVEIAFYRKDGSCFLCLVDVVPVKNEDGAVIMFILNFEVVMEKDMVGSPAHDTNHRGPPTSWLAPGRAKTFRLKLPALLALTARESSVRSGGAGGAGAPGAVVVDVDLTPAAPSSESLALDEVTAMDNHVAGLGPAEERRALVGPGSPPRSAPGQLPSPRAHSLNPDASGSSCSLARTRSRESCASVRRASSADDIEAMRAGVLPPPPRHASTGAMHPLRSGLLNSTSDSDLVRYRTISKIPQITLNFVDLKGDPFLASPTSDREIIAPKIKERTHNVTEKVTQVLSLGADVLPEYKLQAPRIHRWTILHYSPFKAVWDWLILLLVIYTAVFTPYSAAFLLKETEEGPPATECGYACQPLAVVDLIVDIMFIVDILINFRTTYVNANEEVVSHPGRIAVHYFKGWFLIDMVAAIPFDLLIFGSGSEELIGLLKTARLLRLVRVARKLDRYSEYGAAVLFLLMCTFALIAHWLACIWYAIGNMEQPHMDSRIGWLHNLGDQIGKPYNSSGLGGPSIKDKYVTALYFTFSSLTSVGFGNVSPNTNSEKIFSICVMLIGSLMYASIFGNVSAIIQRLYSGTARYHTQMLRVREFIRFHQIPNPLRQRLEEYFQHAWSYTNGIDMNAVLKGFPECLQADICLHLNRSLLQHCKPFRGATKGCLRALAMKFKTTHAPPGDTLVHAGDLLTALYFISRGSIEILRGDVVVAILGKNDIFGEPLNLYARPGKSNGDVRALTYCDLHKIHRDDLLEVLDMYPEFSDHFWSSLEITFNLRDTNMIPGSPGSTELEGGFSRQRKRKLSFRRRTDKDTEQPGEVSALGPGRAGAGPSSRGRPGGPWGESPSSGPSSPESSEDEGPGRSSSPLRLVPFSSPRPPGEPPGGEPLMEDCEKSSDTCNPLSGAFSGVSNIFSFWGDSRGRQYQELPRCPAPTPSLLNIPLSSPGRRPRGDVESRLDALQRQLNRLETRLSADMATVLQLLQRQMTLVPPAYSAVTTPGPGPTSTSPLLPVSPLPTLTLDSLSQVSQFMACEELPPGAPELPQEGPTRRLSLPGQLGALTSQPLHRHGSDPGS
T3 sequence (P41145 whole entry): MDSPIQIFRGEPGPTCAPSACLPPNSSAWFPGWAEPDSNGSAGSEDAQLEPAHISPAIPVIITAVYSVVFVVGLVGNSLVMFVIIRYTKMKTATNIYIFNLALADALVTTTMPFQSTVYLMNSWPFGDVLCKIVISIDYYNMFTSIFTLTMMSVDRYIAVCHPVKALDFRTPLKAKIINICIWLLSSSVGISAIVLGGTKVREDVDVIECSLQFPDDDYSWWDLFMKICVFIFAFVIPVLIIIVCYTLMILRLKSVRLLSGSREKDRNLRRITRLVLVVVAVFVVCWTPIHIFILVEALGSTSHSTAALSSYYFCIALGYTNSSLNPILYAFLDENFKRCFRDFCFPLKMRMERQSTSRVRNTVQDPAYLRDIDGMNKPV
T6 sequence (P41144 whole entry): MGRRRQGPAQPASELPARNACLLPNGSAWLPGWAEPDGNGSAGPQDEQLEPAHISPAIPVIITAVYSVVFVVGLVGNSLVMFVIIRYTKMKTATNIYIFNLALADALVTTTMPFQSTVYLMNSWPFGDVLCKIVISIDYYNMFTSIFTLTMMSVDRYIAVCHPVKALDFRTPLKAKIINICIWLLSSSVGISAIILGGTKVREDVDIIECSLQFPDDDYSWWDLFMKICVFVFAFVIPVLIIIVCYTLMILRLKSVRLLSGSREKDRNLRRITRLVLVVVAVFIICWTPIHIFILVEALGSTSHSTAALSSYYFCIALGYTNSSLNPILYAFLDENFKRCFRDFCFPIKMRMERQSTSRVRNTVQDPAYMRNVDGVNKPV
T2 sequence (P35372 whole entry): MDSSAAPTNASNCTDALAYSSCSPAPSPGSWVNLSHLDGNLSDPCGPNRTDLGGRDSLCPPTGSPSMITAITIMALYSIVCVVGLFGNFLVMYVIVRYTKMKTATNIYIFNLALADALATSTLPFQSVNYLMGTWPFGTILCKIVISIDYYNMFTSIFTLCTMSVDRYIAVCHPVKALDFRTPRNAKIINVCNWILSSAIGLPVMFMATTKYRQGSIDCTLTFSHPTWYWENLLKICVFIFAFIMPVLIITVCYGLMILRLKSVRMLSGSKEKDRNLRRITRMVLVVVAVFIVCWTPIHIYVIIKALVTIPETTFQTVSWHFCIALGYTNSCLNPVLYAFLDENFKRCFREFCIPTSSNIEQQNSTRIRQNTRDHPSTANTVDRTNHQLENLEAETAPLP
T5 sequence (P42866 whole entry): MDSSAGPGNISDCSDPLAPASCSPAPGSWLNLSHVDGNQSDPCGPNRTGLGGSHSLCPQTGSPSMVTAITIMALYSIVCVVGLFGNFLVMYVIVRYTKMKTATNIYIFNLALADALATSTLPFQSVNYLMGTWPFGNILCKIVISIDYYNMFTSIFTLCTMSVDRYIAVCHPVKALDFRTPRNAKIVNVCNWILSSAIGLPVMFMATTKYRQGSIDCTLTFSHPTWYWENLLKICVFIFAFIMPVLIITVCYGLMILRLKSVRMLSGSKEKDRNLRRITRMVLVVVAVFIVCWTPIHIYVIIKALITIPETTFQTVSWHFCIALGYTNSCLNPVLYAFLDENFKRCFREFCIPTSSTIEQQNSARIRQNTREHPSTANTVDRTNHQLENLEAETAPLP
T4 sequence (P32300 whole entry): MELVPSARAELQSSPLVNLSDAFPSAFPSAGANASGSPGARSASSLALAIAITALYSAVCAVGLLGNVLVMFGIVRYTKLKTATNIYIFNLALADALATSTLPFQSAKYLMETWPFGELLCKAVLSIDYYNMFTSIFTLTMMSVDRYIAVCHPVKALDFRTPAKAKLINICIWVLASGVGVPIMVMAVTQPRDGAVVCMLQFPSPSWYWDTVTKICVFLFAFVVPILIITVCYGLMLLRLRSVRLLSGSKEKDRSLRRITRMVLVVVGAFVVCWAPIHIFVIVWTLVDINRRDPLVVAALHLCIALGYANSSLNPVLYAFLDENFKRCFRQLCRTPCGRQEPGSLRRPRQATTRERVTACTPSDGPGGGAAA
T1 sequence (P41143 whole entry): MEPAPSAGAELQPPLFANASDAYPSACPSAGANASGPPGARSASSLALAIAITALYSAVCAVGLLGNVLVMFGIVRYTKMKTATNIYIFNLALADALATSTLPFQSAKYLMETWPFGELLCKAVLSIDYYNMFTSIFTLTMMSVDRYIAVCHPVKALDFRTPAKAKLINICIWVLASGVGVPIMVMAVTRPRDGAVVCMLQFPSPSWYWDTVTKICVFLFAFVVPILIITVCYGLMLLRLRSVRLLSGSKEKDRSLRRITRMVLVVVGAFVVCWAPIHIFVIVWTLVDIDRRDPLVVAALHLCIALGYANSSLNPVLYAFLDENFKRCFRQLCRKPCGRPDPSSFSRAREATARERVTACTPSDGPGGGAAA

Compound	EC50 (human opioid receptor δ) [nM]	Emax (human opioid receptor δ) [%]	EC50 (human opioid receptor μ) [nM]	Emax (human opioid receptor μ) [%]	κ Receptor reaction ratio at the maximum concentration (reference value) (human opioid receptor κ)	EC50 (human opioid receptor κ) [nM]	Emax (human opioid receptor κ) [%]	Ki (δ opioid receptor) [nM]	δ-receptor selectivity (Ki value ratio) μ/δ (μ opioid receptor)	δ-receptor selectivity (Ki value ratio) κ/δ (κ opioid receptor)	HERG channel inhibitory action (hERG channel) [%]	μ Receptor reaction ratio at the maximum concentration (reference value) (human opioid receptor μ)
NCC(O)CN1CC[C@@]23c4cc(O)ccc4C[C@@H]1[C@]21CC[C@@H]2[C@H]3[C@@H](CN2C(=O)c2ccccc2)C1 (single isomer, unassigned) [Compound 62a]	< 1	108	> 100	106	(1.7)^a %							
NCCN1CC[C@@]23c4cc(O)ccc4C[C@@H]1[C@]21CC[C@@H]2[C@H]3[C@@H](CN2C(=O)c2ccccc2)C1 [Compound 13, [(1S,3aR,5aS,6R,11bR,11cS)-14-(2-aminoethyl)-10-hydroxy-1,2,3a,4,5,6,7,11c-octahydro-3H-6,11b-(epiminoethano)-1,5a-methanonaphtho[1,2-e]indol-3-yl](phenyl)methanone]	< 10	101	> 100	39		> 100	12	< 10	>10	>10	<50	
O=C(c1ccccc1)N1C[C@H]2C[C@@]34CC[C@@H]1[C@@H]2[C@@]31CCN(C[C@@H]2CCCN2)[C@@H]4Cc2ccc(O)cc21 [Compound 19, [(1S,3aR,5aS,6R,11bR,11cS)-10-hydroxy-14-[[(2S)-pyrrolidin-2-yl]methyl]-1,2,3a,4,5,6,7,11c-octahydro-3H-6,11b-(epiminoethano)-1,5a-methanonaphtho[1,2-e]indol-3-yl](phenyl)methanone]	< 10	106	> 100	27	(2.6)^a %						<50	
CN1CCC[C@H]1CN1CCC23c4cc(O)ccc4CC1C21CCC2C3[C@@H](CN2C(=O)c2ccccc2)C1 (stereo partly drawn) [Compound 20, [(1S,3aR,5aS,6R,11bR,11cS)-10-hydroxy-14-[[(2S)-11-methylpyrrolidin-2-yl]methyl]-1,2,3a,4,5,6,7,11c-octahydro-3H-6,11b-(epiminoethano)-1,5a-methanonaphtho[1,2-e]indol-3-yl](phenyl)methanone]	< 1	103	> 100	54		> 10	17					
CN(C)CCN1CCC23c4cc(O)ccc4CC1C21CCC2C3[C@@H](CN2C(=O)c2ccccc2)C1 (some centres unmarked) [Compound 40]	< 1	104	> 10	92		> 10	22					
NCCCN1CCC23c4cc(O)ccc4CC1C21CCC2C3[C@@H](CN2C(=O)c2ccccc2)C1 (some centres unmarked) [Compound 41]	< 1	103	> 100	97	(15)^a %							
C[C@H](N)CN1CCC23c4cc(O)ccc4CC1C21CCC2C3[C@@H](CN2C(=O)c2ccccc2)C1 (some centres unmarked) [Compound 43]	< 10	109			(7.2)^a %			< 1	>10	>10		(8.2)^a %
O=C(c1ccccc1)N1C[C@H]2CC34CCC1C2C31CCN(C[C@@H]2CCCCN2)C4Cc2ccc(O)cc21 (some centres unmarked) [Compound 47]								< 10	>10	>10		
O=C(c1ccccc1)N1C[C@H]2CC34CCC1C2C31CCN(CC2CNC2)C4Cc2ccc(O)cc21 (some centres unmarked) [Compound 49]	< 1	108	> 100	105		> 100	28					
NCCCN1CCC23c4cc(O)ccc4CC1C21CCC2C3[C@@H](CN2C(=O)c2cccc3ccccc23)C1 (some centres unmarked) [Compound 55]	< 1	102	> 10	82	(4.8)^a %							
N[C@@H](CO)CN1CC[C@@]23c4cc(O)ccc4C[C@@H]1[C@]21CC[C@@H]2[C@H]3[C@@H](CN2C(=O)c2ccccc2)C1 [Compound 64, [(1S,3aR,5aS,6R,11bR,11cS)-14-[(2R)-2-amino-3-hydroxypropyl]-10-hydroxy-1,2,3a,4,5,6,7,11c-octahydro-3H-6,11b-(epiminoethano)-1,5a-methanonaphtho[1,2-e]indol-3-yl](phenyl)methanone]	< 1	105			(9.0)^a %						<50	(60)^a %
Cc1cc(C)nc(N2C[C@H]3C[C@@]45CC[C@@H]2[C@@H]3[C@@]42CCN(CCN(C)C)[C@@H]5Cc3ccc(O)cc32)n1 [Compound 74, (1S,3aR,5aS,6R,11bR,11cS)-14-[2-(dimethylamino)ethyl]-3-(4,6-dimethylpyrimidin-2-yl)-2,3,3a,4,5,6,7,11c-octahydro-1H-6,11b-(epiminoethano)-1,5a-methanonaphtho[1,2-e]indol-10-ol]	< 1	101	> 10	121		> 100	46					
Cc1cc(C)nc(N2C[C@H]3C[C@@]45CC[C@@H]2[C@@H]3[C@@]42CCN(CCCN)[C@@H]5Cc3ccc(O)cc32)n1 [Compound 76, (1S,3aR,5aS,6R,11bR,11cS)-14-(3-aminopropyl)-3-(4,6-dimethylpyrimidin-2-yl)-2,3,3a,4,5,6,7,11c-octahydro-1H-6,11b-(epiminoethano)-1,5a-methanonaphtho[1,2-e]indol-10-ol]											<50	
